The text below walks through data of a melting point compilation (Tetko et al.; mined from patent text by program, amines drawn as free bases though some values may be those of a salt).

Where only a bound is given, the exact number is not on record here.

By melting point is commonly meant the temperature of the solid-liquid transition. In turn, `NS(=O)(=O)c1ccc(-n2nc(C(F)(F)F)cc2-c2ccc(-c3cscn3)c(C(F)(F)F)c2)cc1F` came in with a melting point of 140 to 142 °C.
As for `CC(C)n1c(=O)nc(-c2cccnc2)c2cc3c(cc21)OCO3`, the figure is 58 to 60 °C; as for `NC(=O)c1cc(C(=O)c2ccccc2)ccc1N`, 225 °C; as for `O=c1c(Cl)nsnc1Oc1cccnc1`, 134 to 136 °C.
As for `COc1cc(C#N)c(C(C)=O)cc1[N+](=O)[O-]`, the figure is 224 to 226 °C.
`C=CCN(C(C)=O)c1cccc(-c2ccc3nnc(C)n3n2)c1` came in with a melting point of 114 to 115 °C.
As for `Cc1ccc(NC(=O)C2C(=O)C3CC[C@](C)(C2=O)C3(C)C)cc1` (stereo partly specified), the figure is 80 to 82 °C.
As for `C[Si](C)(C)c1cc(C(F)(F)F)ccc1OC1CCCCO1` (stereo unspecified), the figure is 43 to 46 °C.
As for `CCN(CC)CCOc1ccc(Nc2ncc3c(n2)N(c2ccccc2)C(=O)N(c2ccc(Cl)cc2Cl)C3)cc1`, the figure is 106 to 108 °C; as for `COc1cccc(CN2CCCc3cc(O)c(OC)cc3C2)c1`, 114 to 115 °C.
For the compound `C=C(c1ccc2cc(OC)ccc2c1)C(O)C(=O)OC` (stereo unspecified), the melting point was in the range of 90.6 to 92.5 °C.
In turn, `CCCCCCCCCCCc1[nH]c2cc(C(=O)OC)ccc2c1C=O` showed a melting point of 147 to 149 °C.
As for `CSC(=NCCSCc1ncccc1Cl)NC#N`, the figure is 120 to 121 °C; as for `CCOC(=O)CCCN=c1sc2ccccc2s1`, 35 to 36 °C.
`c1ccc(N2CCN(CCCc3[nH]nc4c3CCCC4)CC2)cc1` displayed a melting point of 92 to 94 °C.
Compound `COC(=O)c1nc(Cl)c(Cl)c(N)c1OC` registered a melting point of 119 to 121 °C.
As for `CC(O)Cc1c(O)c2cccnc2n(-c2ccc(Cl)c(Cl)c2)c1=O` (stereo unspecified), the figure is 232 to 234 °C.
`CS(=O)(=O)c1ccc(-c2cnn(-c3cccc(Cl)c3)c(=O)c2Cc2ccccc2)cc1`: the melting point was 174 to 177 °C.
Compound `CC1=NC(=S)N=C1CCCCNC(=O)c1ccccc1` came in with a melting point of 180 to 184 °C.
Turning to `COc1cc(I)c(C(=O)N(c2ccnc3cc4c(cc23)OCO4)C(C)CN(C)C)cc1OC` (stereo unspecified), the melting point was 82 to 84 °C.
As for `Nc1cccc2c1OCC2`, the figure is 70 to 72 °C; as for `Fc1ccc2c(c1)Cc1cccnc1-2`, 80 to 84 °C.
As for `CCCSc1cc(-c2ccc(C(F)(F)F)cc2)c(F)cc1[N+](=O)[O-]`, the figure is 57 to 59 °C; as for `CCOc1cc(OC)c2cc(C(=O)CN=[N+]=[N-])ccc2n1`, 129 to 132 °C.
`COC(=O)C(C)(N)Cc1c[nH]c2ccc(OC(F)F)cc12` (racemic): the melting point lay in the range of 140 to 142 °C.
As for `CCOC(=O)c1ccc2cncc(I)c2n1`, the figure is 135 to 137 °C; as for `CC1(C(=O)NC(CCC(=O)O)Cc2ccccc2)Cc2c([nH]c3ccccc23)CN1C(=O)OC1C2CC3CC(C2)CC1C3` (stereo unspecified), 133 to 138 °C.
As for `CC(C)(C)OC(=O)N1CCC(c2ccc3[nH]c(-c4ccc(S(C)(=O)=O)cc4F)nc3c2)CC1`, the figure is 208 to 212 °C; as for `C/C(=C\CC1SC(=O)NC1=O)c1cccc(OCc2nc(-c3ccc(OC(F)(F)F)cc3)oc2C)c1` (stereo unspecified), 50 to 51 °C.
As for `O=C1c2ccccc2CCC1C(=O)C(F)(F)F` (stereo unspecified), the figure is 48 to 49 °C; as for `C1=CC(n2nc(-c3ccc4ccccc4c3)cc2-c2ccccc2)(n2nc(-c3ccc4ccccc4c3)cc2-c2ccccc2)CC=C1c1ccccc1`, 287 °C.
As for `CNC(=O)C(=O)c1ccccc1COc1ccc(-c2ccccc2)cc1`, the melting point was in the range of 144 to 145 °C.
As for `CCOC(CCNC(=O)CCC(=O)NCCC(OCC)OCC)OCC`, the figure is 89 to 90 °C.
Take `NC(=S)NCc1cccs1`: the melting point is 99 to 101 °C.
As for `C=CC1CCC2C3CC=C4CC(O)CCC4(C)C3CCC12C` (stereo unspecified), the figure is 132 to 135 °C; as for `Fc1cccnc1N1CCC2(CC1)COOC2`, 45 to 47 °C.
As for `CCCCCCN(C)c1ccc(C=C2SC(=S)N(Cc3nnn[nH]3)C2=O)cc1`, the figure is 198 to 200 °C; as for `Oc1cccc2c3ccccc3n(C3CCCCO3)c12` (stereo unspecified), 137 to 140 °C; as for `Cc1cc(-n2ccnc2)c2cccc(OCc3c(Cl)ccc(S(=O)(=O)N4CCC[C@H]4CO)c3Cl)c2n1`, 76 °C.
`COc1ccc(S(=O)(=O)N2C(=O)C(O[Si](C)(C)C)(c3ccccc3OC(F)(F)F)c3cc(Cl)ccc32)c(OC)c1` (stereo unspecified) came in with a melting point of 181 °C.
As for `CC(C)OC(=O)c1cc(NC(=S)OC(C)C)ccc1Cl`, the figure is 89 °C; as for `CC1CC(n2c(NC3CC3)nc3cc(Cl)c(Cl)cc32)C(O)C1O` (stereo unspecified), 231 to 233 °C; as for `Cc1ccc(Cl)cc1N1CCCN(C)C1=S`, 143 to 145 °C.
The compound `Cc1ccc(S(=O)(=O)Nc2nc(-c3ccc([N+](=O)[O-])cc3)cs2)cc1` registered a melting point greater than 250 °C.
As for `O=C(O)Cc1ccc(SCc2ccccc2C(=O)O)cc1`, the figure is 169 °C; as for `COC(=O)C(=CN(C)C)c1cc(F)cc(F)c1`, 97 °C.
As for `NC(=O)Cc1nc(-c2ccc(Cl)cc2)sc1-c1ccccc1`, the melting point fell in the range of 202 to 203 °C.
As for `COn1ccn(C)c1=S`, the figure is 56.9 to 57.5 °C.
Compound `O=C(c1ccccc1F)c1cc2c(c(Cl)c1Cl)OC(CO)C2` (stereo unspecified) yielded a melting point of 148 to 150 °C.
As for `COc1ccccc1-c1nn(C(C)C(=O)N(C)C)cc1Cl` (stereo unspecified), the figure is 74 to 77 °C; as for `Cc1c(-c2ccc3c(c2)OCO3)n(Cc2ccc(OCCN3CCCCC3)cc2)c2ccc(O)cc12`, 122 to 125 °C.
Turning to `CCOC(=O)N1CCC(O)(c2cc(F)c(Br)cc2F)CC1`, the melting point lay in the range of 133 to 136 °C.
As to `O=C(O)Cc1cn(C(=O)c2cccc(C(F)(F)F)c2)c2cc(Cl)ccc12`, the melting point was 194 to 196 °C.
As for `COc1ccc(C(=O)NC2CCCCC2)c2c1OCC2C(=O)OCc1ccccc1` (stereo unspecified), the figure is 178 to 179 °C; as for `COc1ccc(/C(=C/C(=O)O)c2cc(C)cc(Cl)c2)cc1`, 190 to 192 °C; as for `COC(=O)CCc1cc(C)on1`, 54 to 55 °C.
In the case of `O=C(N1CCc2cc(S(=O)(=O)Cl)ccc2C1)C(F)(F)F`, the melting point lay within 110 to 112 °C.
Compound `CC(=O)c1ccc(N)c(C#N)c1` displayed a melting point of 155 to 159 °C.
As for `CNn1c(C)nc(N2CCc3ccccc3CC2)c(C#N)c1=O`, the figure is greater than 200 °C.
Compound `O=C1CCC(c2ccc3[nH]c(-c4cccc(C(F)(F)F)c4)cc3c2)=NN1` registered a melting point of 215 to 218 °C.
As for `CC(C)C(=O)CC(=O)c1ccc(C(=O)CC(=O)C(C)C)cc1`, the figure is 97 to 97.5 °C; as for `O=C(CNC(=O)OCc1ccccc1)NCC1CCCCC1`, 95 to 98 °C; as for `CC1(C)CC=C(Nc2ccccc2Cl)C(=O)C1`, 150 to 152 °C.
As for `CCOC(=O)c1c(-c2ccc(Cl)c(Cl)c2)csc1N1C(=O)c2ccccc2C1=O`, the figure is 155 to 156 °C.
As for `COC(=O)CCC#CCCC(=O)O`, the figure is 71.5 to 72 °C; as for `O=C1N(Cc2ccc(Cl)cc2)c2ccccc2C1(O)c1cc(OCc2ccccc2)ccc1O` (stereo unspecified), 172 to 175 °C.
